Experimental data published in ChEMBL document CHEMBL1201862, “PubChem BioAssay data set” (2004).
The source made the active and inactive calls. For most assays here, no stated cut-off is given here; in the data, actives have a measured EC50 and inactives only a lower limit.

What was measured:
[1] = Luminescence Cell-Based Dose Confirmation HTS to Identify Activators of 5'UTR Stem-Loop Driven Alpha-Synuclein mRNA Translation in H4 Neuroglioblastoma Cells. [Related pubchem assays: 1829 (Project Summary), 1814 (Primary HTS)]; type: functional
H4 = assay: Luminescence Cell-Based Dose Response HTS to Identify Activators of 5'UTR Stem-Loop Driven Prion Protein mRNA Translation in H4 Neuroglioblastoma Cells. [Related pubchem assays: 1829 (Project Summary), 1814 (Primary HTS)]; type: functional; settings: Homo sapiens
[2] = Luminescence Cell-Based Dose Response HTS to Identify Activators of Luciferase Translation or Activity in H4 […] Cells. [Related pubchem assays: 1829 (Project Summary), 1814 (Primary HTS)]; type: functional
[3] = reduction of Shn3 3'UTR-driven luciferase in osteoblasts – cell-based, Clone20 osteoblasts, firefly luciferase, cherry-picked, dose response (AID 624132); type: functional;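 further: firefly luciferase luminescence from reporter carrying the Shn3 3'UTR in osteoblasts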
[4] = loss of viability in HepG2 cells – cell-based, CellTiter-Glo, cherry-picked, cytotoxicity control for Shn3 inhibitor project, dose response (AID 624134); type: functional
[5] = non-specific 3'UTR reporter inhibition in Clone20-Shn3RL – cell-based, Renilla luciferase, cherry-picked, counter-screen for Shn3 inhibitor project, dose response (AID 624133); type: functional
[6] = biological target: T1, Corticotropin-releasing factor receptor 2/Corticotropin-releasing factor-binding protein (Homo sapiens, UniProt P24387+Q13324); assay: Dose Response confirmation of uHTS hits for small molecule antagonists of the CRF-binding protein and CRF-R2 receptor complex.; type: functional; settings: read-out: IC50_Mean
T1 sequence (Q13324 whole entry): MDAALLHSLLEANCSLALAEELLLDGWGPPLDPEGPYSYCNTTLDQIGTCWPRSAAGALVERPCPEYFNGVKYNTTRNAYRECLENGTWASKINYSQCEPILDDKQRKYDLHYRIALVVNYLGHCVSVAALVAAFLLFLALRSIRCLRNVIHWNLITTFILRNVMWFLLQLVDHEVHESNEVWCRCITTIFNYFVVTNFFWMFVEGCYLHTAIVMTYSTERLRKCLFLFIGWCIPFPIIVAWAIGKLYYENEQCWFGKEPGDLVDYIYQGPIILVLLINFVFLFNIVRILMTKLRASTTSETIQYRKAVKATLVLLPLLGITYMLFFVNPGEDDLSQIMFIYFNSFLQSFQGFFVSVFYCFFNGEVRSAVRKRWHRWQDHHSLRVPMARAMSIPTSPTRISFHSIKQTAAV
T1 sequence (P24387 whole entry): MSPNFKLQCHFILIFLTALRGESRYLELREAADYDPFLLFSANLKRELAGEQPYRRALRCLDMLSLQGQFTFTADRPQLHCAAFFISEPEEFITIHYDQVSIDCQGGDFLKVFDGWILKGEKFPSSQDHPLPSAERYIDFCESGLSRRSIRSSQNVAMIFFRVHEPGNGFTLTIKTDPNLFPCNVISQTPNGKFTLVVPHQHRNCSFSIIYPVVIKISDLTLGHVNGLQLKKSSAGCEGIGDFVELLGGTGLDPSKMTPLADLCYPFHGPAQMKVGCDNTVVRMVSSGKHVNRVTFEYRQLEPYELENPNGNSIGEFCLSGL

[7] = biological target: T1, Corticotropin-releasing factor receptor 2/Corticotropin-releasing factor-binding protein; assay: activators of CRF receptor 2 with binding protein – uHTS hits, confirmation (AID 602473); type: functional; settings: read-out: EC50_Mean
[8] = alpha-synuclein stem-loop luciferase translation blockers – H4 neuroglioma cells, luminescence, confirmation (AID 1988); type: functional, cell-based
[9] = NIH3T3 cell viability loss – ATP luminescence, mouse fibroblasts, counter-screen, dose response (AID 2010); type: functional, cell-based;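 further: cells exposed to compound for about 90 hours before reading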
[10] = Luminescence Cell-Based Dose Response HTS to Identify Inhibitors of 5'UTR Stem-Loop Driven Prion Protein mRNA Translation in H4 Neuroglioblastoma Cells. [Related pubchem assays: 1827 (Project Summary), 1813 (Primary HTS)]; type: functional
[11] = Trypanosoma cruzi growth suppression in host cells – NIH3T3 host cells, beta-gal luminescence, confirmation (AID 2044); type: functional, cell-based;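 further: intracellular parasites grown in NIH/3T3 mouse fibroblasts as host cells; luminescent beta-galactosidase reporter signal from transgenic T. cruzi replicating inside host cells; inhibitors lower the luminescence signal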
[12] = luciferase reporter signal suppression in cells – H4 neuroglioma cells, luminescence, dose response (AID 1990); type: functional, cell-based

Row | SMILES | EC50 [1] | EC50 (H4) | EC50 [2] | EC50 [7] | also measured
1 | CN(Cc1cccs1)C(=O)Cc1csc(-c2ccccc2)n1 | 32 µM (active) | 15.9 µM (active) | 10.1 µM (active) |  | 
2 | CC(C)c1ccc(NCCC(=O)c2cccs2)cc1 | 4.14 µM (active) | 61.8 µM (active) | 33.1 µM (active) |  | 
3 | O=C1CCCC/C1=C/Nc1ccc2c(c1)OCO2 | 8.5 µM (active) | > 120 µM (not active) | 7.34 µM (active) |  | 
4 | Cc1ccsc1C1Nc2ccccc2-c2nc3ccccc3n21 (stereo unspecified) | 24.3 µM (active) | 26.1 µM (active) | 60.7 µM (active) |  | 
5 | C[C@H]1CN=C(N(C)C)N1CC1CCC(C(C)(C)C)CC1 (stereo partly specified) |  |  |  |  | AC50 [3]: 2.27 µM (active); AC50 [4]: 41.5 µM (active); AC50 [5]: 20.3 µM (active)
6 | Cc1c(C(=O)NC(=S)NCC(C)C)oc2ccccc12 | 27.2 µM (active) |  | 63.2 µM (active) |  | 
7 | COc1ccc(NC(=O)CSc2nnc(N)s2)c([N+](=O)[O-])c1 |  |  |  | > 53 µM (inactive) | IC50 [6]: > 47.1 µM (inactive)
8 | Brc1ccc2c(c1)OCCOCCOc1cc(Br)ccc1OCCOCCOCCO2 |  |  |  |  | EC50 [8]: > 120 µM (not active); EC50 [9]: > 60 µM (not active); EC50 [10]: 103 µM (active); EC50 [11]: 1.04 µM (active); EC50 [12]: 14.1 µM (active)
9 | CC1CCCCN1C(=O)CSc1nc2ccsc2c(=O)n1Cc1ccccn1 (stereo unspecified) | 46.3 µM (active) | 9.84 µM (active) | 5.86 µM (active) |  | 
10 | CCN1CCN(C(=O)C2=CC(c3ccc(OC)cc3)=NS(=O)(=O)N2C)CC1 |  |  |  | > 53 µM (inactive) | IC50 [6]: > 47.1 µM (inactive)
11 | COc1cc(CCC(=O)NC2(C)CCS(=O)(=O)C2)cc(OC)c1OC (stereo unspecified) |  |  |  | > 53 µM (inactive) | IC50 [6]: > 47.1 µM (inactive)
12 | COCCn1c(SCC(=O)c2ccc3c(c2)OCCO3)nnc1-c1ccco1 |  |  |  | > 53 µM (inactive) | IC50 [6]: > 47.1 µM (inactive)
13 | COc1ccc(S(=O)(=O)N2CCOCC2)cc1NC(=O)CC1CC2CCC1C2 (stereo unspecified) |  |  |  | > 53 µM (inactive) | IC50 [6]: > 47.1 µM (inactive)
14 | Cc1ccc(C(=O)NC(=S)NCC2CCCO2)cc1Br (stereo unspecified) | 11 µM (active) | 45.5 µM (active) | 21 µM (active) |  | 
15 | COc1ccc(CCN2CCCC(CN(C)C(=O)c3cc(C)oc3C)C2)cc1 (stereo unspecified) | 41.5 µM (active) | 32.7 µM (active) | 31.9 µM (active) |  | EC50 [9]: > 60 µM (not active); EC50 [11]: 0.149 µM (active)
16 | O=C(NCc1cc(C(F)(F)F)ccc1Cl)c1cccc2c1C(=O)c1ccc(N3CCCCC3)cc1S2(=O)=O |  |  |  | 6.26 µM (active) | 
17 | COc1ccc(CC(N)c2csc(NC(=O)Nc3cccc(C(F)(F)F)c3)n2)cc1 (stereo unspecified) |  |  |  |  | AC50 [3]: 8.4 µM (active); AC50 [4]: 11 µM (active); AC50 [5]: 7.68 µM (active)
18 | c1ccc2c(c1)oc1c(NCC3CCCO3)ncnc12 (stereo unspecified) | 8.39 µM (active) | 7.09 µM (active) | 19 µM (active) |  | 
19 | COc1ccc(OC)c(C(=O)Cn2nnc(-c3ccc(N4CCOCC4)cc3)n2)c1 | > 120 µM (not active) | > 120 µM (not active) | > 120 µM (not active) |  | 
20 | CCOC(=O)N1CCN(C(=O)CCNS(=O)(=O)c2ccc3c(c2)c(=O)n(C)c(=O)n3C)CC1 | > 120 µM (not active) | > 120 µM (not active) | > 120 µM (not active) |  | 
21 | COc1cccc(CNC(=O)C2CCC(=O)N(CC3CCCCC3)C2)c1OC (stereo unspecified) |  |  |  | > 53 µM (inactive) | IC50 [6]: > 47.1 µM (inactive)
22 | CCc1c(C)nc2ncnn2c1Nc1ccc(C(C)=O)cc1 | 34.4 µM (active) | 57.4 µM (active) | 92 µM (active) |  | 
23 | COc1ccc2ccccc2c1CNCCCN1CCOCC1 |  |  |  | > 53 µM (inactive) | IC50 [6]: > 47.1 µM (inactive)
24 | Cc1ccc(-c2nn(-c3ccccc3)cc2/C=N/n2c(S)nnc2-c2ccncc2)cc1 | > 120 µM (not active) | 34.1 µM (active) | 34.3 µM (active) |  | 
